Experimental findings from PMC9410420, “Novel Labdane Diterpenes-Based Synthetic Derivatives: Identification of a Bifunctional Vasodilator That Inhibits CaV1.2 and Stimulates KCa1.1 Channels” (Marine Drugs, 2022) are described below.

For orientation: Emax means the size of the effect at its maximum, as opposed to the concentration needed. By IC50 is commonly meant the concentration at which inhibition is half-maximal.

Some results are limits rather than exact numbers.

For series [1], the system named is rat aorta rings. Nature of the series: Phenylephrine-induced contraction of rat aorta rings (pharmaco-mechanical coupling). The following applies: for Emax: Rattus norvegicus; for Emax / IC50: 0.3 µM phenylephrine. As for the experimental part:
(§1) The abdominal aorta was gently cleaned of adipose and connective tissues and cut into 3-mm wide rings. These were mounted in organ baths between two parallel, L-shaped, stainless-steel hooks, with one fixed in place and the other connected to an isometric transducer. Rings were allowed to equilibrate for 60 min in modified Krebs-Henseleit solution (composition in mM: 118 NaCl, 4.75 KCl, 1.19 KH2PO4, 1.19 MgSO4, 25 NaHCO3, 11.5 glucose, 2.5 CaCl2, gassed with a 95% O2–5% CO2 gas mixture to create a pH of 7.4) under a passive tension of 1 g. During this equilibration period, the solution was changed every 15 min. Isometric tension was recorded using a digital PowerLab data acquisition system (PowerLab 8/30; ADInstruments). Ring viability was assessed by recording the response to 0.3 µM phenylephrine and 60 mM KCl. Where needed, the endothelium was removed by gently rubbing the lumen of the ring with a forceps tip. This procedure was validated by adding 10 µM acetylcholine at the plateau of phenylephrine-induced contraction; a relaxation greater than 70% or less than 10% denoted the presence or absence of functional endothelium, respectively.
(§2) Aorta rings were pre-contracted pharmaco-mechanically using 0.3 µM phenylephrine and electromechanically using 25–30 mM or 60 mM KCl. Once the contraction reached a plateau, the compound was added cumulatively into the organ bath. […] The response was calculated as the percentage of phenylephrine- or KCl-induced contraction (taken as 100%).

For series [2], the target named is T1, CaV1.2 channel (Rattus norvegicus, UniProt P22002).
T1 construct: smooth muscle cells were freshly isolated; endogenous in cells; host or cells: freshly isolated rat tail main artery smooth muscle cells
Nature of the series: Whole-cell patch-clamp, Ba2+ current through CaV1.2 channels (IBa1.2) in rat tail artery myocytes. In kind it is cell-based. The settings on record: for Emax: read-out: Emax (percent maximal inhibition), IBa1.2; for IC50: read-out: IC50, IBa1.2 inhibition. The method, then:
The tail main artery was dissected free of its connective tissue, and smooth muscle cells were freshly isolated under the following conditions. […] Cells stored in 0.05 mM Ca^2+ external solution containing 20 mM taurine and 0.5 mg/mL BSA at 4 °C under normal air were used for experiments within two days after isolation.
An Axopatch 200B patch-clamp amplifier (Molecular Devices Corporation, Sunnyvale, CA, USA) was used to generate and apply voltage pulses to the clamped cells and record the corresponding membrane currents. Recording electrodes were pulled from borosilicate glass capillaries (WPI, Berlin, Germany) and fire-polished to obtain a pipette resistance of 2–4 MΩ, when filled with an internal solution. At the beginning of each experiment, the junction potential between the pipette and bath solution was electronically adjusted to zero. […] Electrophysiological responses were tested at room temperature (20–22 °C).
The conventional whole-cell patch-clamp method was employed to voltage-clamp smooth muscle cells. The internal solution consisted of (in mM) 100 CsCl, 10 HEPES, 11 EGTA, 2 MgCl2, 1 CaCl2 (pCa 8.4), 5 Na pyruvate, 5 succinic acid, 5 oxaloacetic acid, 3 Na2ATP, and 5 phosphocreatine; pH was adjusted to 7.4 with CsOH. IBa1.2 was recorded in an external solution containing 30 mM TEA and 5 mM Ba^2+. […] Data were collected once the current amplitude had been stabilized (usually 7–10 min after the whole-cell configuration had been obtained).
A general note: The patch-clamp technique gives a direct electrical read-out from membranes.

In series [3] the test system is rat aorta rings. The series is described as follows: KCl-induced contraction of rat aorta rings (electromechanical coupling). The method, then: as §1, §2
Series [4] deals with T1, CaV1.2 channel. The series is described as follows: Voltage dependence of CaV1.2 channel steady-state activation and inactivation in rat tail artery myocytes. It is filed as cell-based. The settings on record: for Slope inact (slope factor of inactivation) / V50 inact (50% inactivation potential): Vh −80 mV. The text has this: An Axopatch 200B patch-clamp amplifier (Molecular Devices Corporation, Sunnyvale, CA, USA) was used to generate and apply voltage pulses to the clamped cells and record the corresponding membrane currents. Recording electrodes were pulled from borosilicate glass capillaries (WPI, Berlin, Germany) and fire-polished to obtain a pipette resistance of 2–4 MΩ, when filled with an internal solution. At the beginning of each experiment, the junction potential between the pipette and bath solution was electronically adjusted to zero. After compensation for whole-cell capacitance and series resistance (between 70% and 75%), current signals were low-pass filtered at 1 kHz and digitized at 3 kHz, before being stored on a computer hard disk. Electrophysiological responses were tested at room temperature (20–22 °C).
Cells were continuously superfused with an external solution containing 0.1 mM Ca^2+ and 30 mM TEA using a peristaltic pump (LKB 2132, Bromma, Sweden) at a flow rate of 400 µL/min. The conventional whole-cell patch-clamp method was employed to voltage-clamp smooth muscle cells. The internal solution consisted of (in mM) 100 CsCl, 10 HEPES, 11 EGTA, 2 MgCl2, 1 CaCl2 (pCa 8.4), 5 Na pyruvate, 5 succinic acid, 5 oxaloacetic acid, 3 Na2ATP, and 5 phosphocreatine; pH was adjusted to 7.4 with CsOH. IBa1.2 was recorded in an external solution containing 30 mM TEA and 5 mM Ba^2+. The current was elicited with 250-ms clamp pulses (0.067 Hz) to 10 mV, from a Vh of −50 mV. Data were collected once the current amplitude had been stabilized (usually 7–10 min after the whole-cell configuration had been obtained).
Steady-state activation curves were derived from the current–voltage relationships. Conductance (G) was calculated from the equation G = IBa1.2/(Em − Erev), where: IBa1.2 is the peak current elicited by depolarizing test pulses between −50 mV and 40 mV from a Vh of −50 mV; Em is the membrane potential; and Erev is the reversal potential (estimated from the extrapolated current-voltage curves in Figure 2). Gmax is the maximal Ba^2+ conductance (calculated at potentials ≤40 mV). The G/Gmax ratio was plotted against the membrane potential and fitted to the Boltzmann equation [40]. Steady-state inactivation curves were obtained using a double-pulse protocol. Once various levels of the conditioning potential had been applied for 5 s, followed by a short (5-ms) return to the Vh of −80 mV, a test pulse (250 ms) to 10 mV was delivered to evoke the current. The delay between the conditioning potential and the test pulse allowed the full or near-complete deactivation of the channels, simultaneously avoiding partial recovery from inactivation. K^+ currents were blocked with 30 mM TEA in the external solution and Cs^+ in the internal solution. […] The osmolarity of the 30 mM TEA- and 5 mM Ba^2+-containing external solution (320 mosmol, adjusted with NaCl if required) and that of the internal solution (290 mosmol) were measured with an osmometer (Osmostat OM 6020, Menarini Diagnostics, Florence, Italy).

Setting [5] is: endothelium-denuded rat aorta rings pre-contracted by 25 mM KCl, read-out: Emax (percent maximal inhibition), KCl 25 mM-induced contraction.
[6] abbreviates: endothelium-denuded rat aorta rings pre-contracted by 60 mM KCl, read-out: Emax (percent maximal inhibition), KCl 60 mM-induced contraction.
Where [7] appears, read: endothelium-denuded rat aorta rings pre-contracted by 60 mM KCl, read-out: IC50, KCl 60 mM-induced contraction.
The mark [8] stands for this setting: endothelium-denuded rat aorta rings, read-out: Emax (percent maximal inhibition), phenylephrine-induced contraction, −Endothelium.
Where [9] appears, read: endothelium-intact rat aorta rings, read-out: Emax (percent maximal inhibition), phenylephrine-induced contraction, +Endothelium.
Setting [10] is: endothelium-denuded rat aorta rings.
[11] abbreviates: endothelium-denuded rat aorta rings pre-contracted by 25 mM KCl, read-out: IC50, KCl 25 mM-induced contraction.

T1 sequence (P22002 whole entry): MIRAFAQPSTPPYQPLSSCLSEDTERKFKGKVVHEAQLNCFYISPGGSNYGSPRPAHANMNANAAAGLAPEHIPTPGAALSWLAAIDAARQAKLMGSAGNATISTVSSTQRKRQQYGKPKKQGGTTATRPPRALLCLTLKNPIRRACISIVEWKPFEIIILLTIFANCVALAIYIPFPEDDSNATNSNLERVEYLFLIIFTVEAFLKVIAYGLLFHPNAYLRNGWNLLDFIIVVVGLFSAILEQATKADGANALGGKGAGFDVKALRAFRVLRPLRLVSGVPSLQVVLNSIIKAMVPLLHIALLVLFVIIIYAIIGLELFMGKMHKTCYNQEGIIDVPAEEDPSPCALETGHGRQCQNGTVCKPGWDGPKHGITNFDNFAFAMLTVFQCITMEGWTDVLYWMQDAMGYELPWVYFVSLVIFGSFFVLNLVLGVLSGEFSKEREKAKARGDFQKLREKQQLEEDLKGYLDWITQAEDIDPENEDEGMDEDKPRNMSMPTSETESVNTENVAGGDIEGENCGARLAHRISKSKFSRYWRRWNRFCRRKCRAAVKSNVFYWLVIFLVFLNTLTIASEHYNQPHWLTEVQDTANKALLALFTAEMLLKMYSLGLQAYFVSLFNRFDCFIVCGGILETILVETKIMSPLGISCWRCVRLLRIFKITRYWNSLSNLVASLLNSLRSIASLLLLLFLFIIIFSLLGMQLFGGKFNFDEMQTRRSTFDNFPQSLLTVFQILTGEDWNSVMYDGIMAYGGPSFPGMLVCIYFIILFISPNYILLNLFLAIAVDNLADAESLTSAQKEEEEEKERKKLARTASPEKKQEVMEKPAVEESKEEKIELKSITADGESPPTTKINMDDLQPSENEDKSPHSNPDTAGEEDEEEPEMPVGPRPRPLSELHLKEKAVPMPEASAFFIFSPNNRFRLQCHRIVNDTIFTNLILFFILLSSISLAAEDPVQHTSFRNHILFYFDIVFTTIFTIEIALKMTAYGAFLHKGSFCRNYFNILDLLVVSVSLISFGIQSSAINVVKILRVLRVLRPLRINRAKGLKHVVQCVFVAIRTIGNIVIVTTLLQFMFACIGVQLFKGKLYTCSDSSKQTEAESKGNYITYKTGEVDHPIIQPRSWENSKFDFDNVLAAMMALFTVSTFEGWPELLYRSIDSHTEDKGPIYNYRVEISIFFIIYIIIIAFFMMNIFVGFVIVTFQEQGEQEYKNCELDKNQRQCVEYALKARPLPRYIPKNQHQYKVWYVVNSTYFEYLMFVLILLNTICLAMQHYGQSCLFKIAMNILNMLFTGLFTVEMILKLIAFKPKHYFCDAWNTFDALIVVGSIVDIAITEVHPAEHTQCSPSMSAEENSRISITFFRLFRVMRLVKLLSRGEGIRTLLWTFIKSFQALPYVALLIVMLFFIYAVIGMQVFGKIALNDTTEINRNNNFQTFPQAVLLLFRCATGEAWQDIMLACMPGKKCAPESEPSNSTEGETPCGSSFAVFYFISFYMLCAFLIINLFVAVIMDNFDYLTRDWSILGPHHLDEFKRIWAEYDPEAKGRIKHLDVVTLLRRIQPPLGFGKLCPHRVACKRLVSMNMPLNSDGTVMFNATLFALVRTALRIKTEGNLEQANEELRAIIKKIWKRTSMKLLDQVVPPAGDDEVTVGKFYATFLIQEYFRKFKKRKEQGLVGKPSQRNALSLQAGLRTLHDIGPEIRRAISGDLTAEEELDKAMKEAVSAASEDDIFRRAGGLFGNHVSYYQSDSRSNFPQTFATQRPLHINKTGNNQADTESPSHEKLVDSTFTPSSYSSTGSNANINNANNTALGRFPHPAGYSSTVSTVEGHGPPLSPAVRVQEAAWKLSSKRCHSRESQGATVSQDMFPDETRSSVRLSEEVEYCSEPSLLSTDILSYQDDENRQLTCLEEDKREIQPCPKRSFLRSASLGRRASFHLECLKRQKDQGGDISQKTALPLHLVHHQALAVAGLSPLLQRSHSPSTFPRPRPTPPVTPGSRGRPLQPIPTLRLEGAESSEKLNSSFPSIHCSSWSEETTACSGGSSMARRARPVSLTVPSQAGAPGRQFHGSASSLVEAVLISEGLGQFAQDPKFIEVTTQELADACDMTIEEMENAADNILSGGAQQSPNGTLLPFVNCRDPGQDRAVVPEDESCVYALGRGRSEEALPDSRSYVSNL
T1 sequence (P54290 25-944 partner limits assumed): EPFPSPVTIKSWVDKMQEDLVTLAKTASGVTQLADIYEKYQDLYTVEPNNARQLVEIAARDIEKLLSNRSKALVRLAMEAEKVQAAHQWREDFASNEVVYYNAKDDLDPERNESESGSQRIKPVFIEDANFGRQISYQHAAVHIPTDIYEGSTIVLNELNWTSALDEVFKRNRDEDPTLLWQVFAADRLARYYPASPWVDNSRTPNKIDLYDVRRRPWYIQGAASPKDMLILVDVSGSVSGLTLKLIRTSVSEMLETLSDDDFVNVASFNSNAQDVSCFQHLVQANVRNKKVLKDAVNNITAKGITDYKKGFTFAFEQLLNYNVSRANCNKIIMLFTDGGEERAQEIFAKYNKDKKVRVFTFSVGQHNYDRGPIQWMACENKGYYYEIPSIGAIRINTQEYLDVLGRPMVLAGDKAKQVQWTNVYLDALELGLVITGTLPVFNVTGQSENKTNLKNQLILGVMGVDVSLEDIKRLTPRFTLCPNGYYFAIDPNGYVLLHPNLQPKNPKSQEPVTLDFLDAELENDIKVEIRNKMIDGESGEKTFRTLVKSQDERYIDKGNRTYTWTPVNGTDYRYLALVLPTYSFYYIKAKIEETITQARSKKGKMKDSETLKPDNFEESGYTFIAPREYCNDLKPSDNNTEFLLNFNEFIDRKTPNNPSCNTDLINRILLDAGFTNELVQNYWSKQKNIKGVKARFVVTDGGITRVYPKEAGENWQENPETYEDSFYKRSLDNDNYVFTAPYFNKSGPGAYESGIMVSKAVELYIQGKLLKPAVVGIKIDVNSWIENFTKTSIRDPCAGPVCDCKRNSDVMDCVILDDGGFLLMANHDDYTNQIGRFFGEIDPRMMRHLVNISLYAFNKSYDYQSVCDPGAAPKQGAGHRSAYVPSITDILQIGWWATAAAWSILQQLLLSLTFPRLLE
T1 sequence (P54290 945-1091 partner limits assumed): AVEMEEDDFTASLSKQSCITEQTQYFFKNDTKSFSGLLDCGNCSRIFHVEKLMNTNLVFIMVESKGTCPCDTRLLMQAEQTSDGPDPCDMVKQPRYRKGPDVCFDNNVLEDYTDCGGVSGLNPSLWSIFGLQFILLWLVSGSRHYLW
T1 sequence (P54287 whole entry partner): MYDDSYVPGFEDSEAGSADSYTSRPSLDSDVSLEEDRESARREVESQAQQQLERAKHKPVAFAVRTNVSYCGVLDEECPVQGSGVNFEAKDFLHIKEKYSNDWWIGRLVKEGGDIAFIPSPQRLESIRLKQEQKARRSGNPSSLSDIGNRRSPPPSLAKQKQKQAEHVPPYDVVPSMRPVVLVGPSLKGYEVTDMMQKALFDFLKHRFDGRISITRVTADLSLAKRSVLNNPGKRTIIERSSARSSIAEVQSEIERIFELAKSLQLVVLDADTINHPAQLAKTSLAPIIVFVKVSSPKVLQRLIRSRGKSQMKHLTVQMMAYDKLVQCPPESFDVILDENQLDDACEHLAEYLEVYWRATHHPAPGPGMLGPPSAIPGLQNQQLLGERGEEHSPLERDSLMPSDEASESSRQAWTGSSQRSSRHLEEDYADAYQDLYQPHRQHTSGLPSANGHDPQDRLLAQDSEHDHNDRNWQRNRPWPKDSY

Turning to `CC1(C)CCCC2(C)C1CCC1(C)OC(=O)CC12` (single isomer, unassigned; (+)) [Compound 5, (+)-sclareolide, reference compound], the “Effect on phenylephrine-induced tone in words” value in the series with rat aorta rings [1] (endothelium-intact rat aorta rings) was “dramatic concentration-dependent increase of phenylephrine-induced tone”. Moreover, the Emax on CaV1.2 channel [2] (pulses to 10 mV from Vh −50 mV) is 64.8 ± 6.1%; in the series on rat aorta rings [3] (setting [5]), 45.9 ± 8.5%; in the series with rat aorta rings [3] (setting [6]), 73.5 ± 6.8%. Besides, the IC50 on CaV1.2 channel [2] (pulses to 10 mV from Vh −50 mV) was around 69 µM; in the series with rat aorta rings [3] (setting [7]), 29.2 ± 6.1 µM.
In the case of `COC(=O)C1=C(C)NC(C)=C([N+](=O)[O-])[C@H]1c1ccccc1C(F)(F)F` [Bay K 8644, (S)-(-)-Bay K 8644, reference compound], the “IBa1.2, % of the control” value on CaV1.2 channel [2] (100 nM, n = 5) amounted to 447 ± 28%.
For the compound `CC1(C)CCC[C@]2(C)[C@@H](CC(=O)NCc3ccco3)[C@](C)(O)CC[C@@H]12` [Compound 8], the “Slope inact (slope factor of inactivation)” value on CaV1.2 channel [4] (10 µM compound) is on record as −11.51 ± 1.90. The “V50 inact (50% inactivation potential)” value at CaV1.2 channel [4] (10 µM compound) is on record as −30.97 ± 3.49 mV. Moreover, at CaV1.2 channel [4] (30 µM compound), the “Slope act (slope factor of activation)” value amounted to 7.61 ± 0.66. Also, the “V50 act (50% activation potential)” value on CaV1.2 channel [4] (30 µM compound) was determined as 0.03 ± 1.35 mV. Moreover, the Emax is at most 60% in the series with rat aorta rings [1] (setting [8]); 15.2 ± 7.9% in the series with rat aorta rings [1] (setting [9]); 92.4 ± 2.2% on CaV1.2 channel [2] (pulses to 10 mV from Vh −50 mV); 85.8 ± 4.8% in the series with rat aorta rings [3] (setting [5]); 87.3 ± 4.9% in the series on rat aorta rings [3] (setting [6]). Also, the IC50 with rat aorta rings [1] (setting [10]) is around 44.7 µM; on CaV1.2 channel [2] (pulses to 10 mV from Vh −50 mV) it was 16.7 ± 3 µM; with rat aorta rings [3] (setting [11]), 2.1 ± 0.9 µM; in the series with rat aorta rings [3] (setting [7]), 6.1 ± 1.6 µM.
On to `CC1(C)CCC[C@]2(C)[C@@H](CC(=O)NCCc3cccc(F)c3)[C@](C)(O)CC[C@@H]12` [Compound 9], for which, at CaV1.2 channel [4] (10 µM compound), the “Slope act (slope factor of activation)” value stood at 6.79 ± 0.35. Further, on CaV1.2 channel [4] (10 µM compound), the “V50 act (50% activation potential)” value is −2.37 ± 0.95 mV. The “Slope inact (slope factor of inactivation)” value at CaV1.2 channel [4] (10 µM compound) is −10.25 ± 1.33. Moreover, the “V50 inact (50% inactivation potential)” value on CaV1.2 channel [4] (10 µM compound) is reported as −36.46 ± 2.73 mV. Moreover, the Emax in the series with rat aorta rings [1] (setting [8]) is at most 60%; with rat aorta rings [1] (setting [9]), 19.4 ± 23.2%; on CaV1.2 channel [2] (pulses to 10 mV from Vh −50 mV) it was 97.8 ± 0.8%; with rat aorta rings [3] (setting [5]) it was 92.3 ± 0.6%; in the series on rat aorta rings [3] (setting [6]), 92.4 ± 1.3%. The IC50 was around 55 µM in the series on rat aorta rings [1] (setting [10]), 15.3 ± 5.3 µM at CaV1.2 channel [2] (pulses to 10 mV from Vh −50 mV), 0.9 ± 0.2 µM in the series on rat aorta rings [3] (setting [11]) and 4.5 ± 0.5 µM with rat aorta rings [3] (setting [7]).
With `CC1(C)CCC[C@]2(C)[C@@H](CCOCc3cccc(Cl)c3)[C@](C)(O)CC[C@@H]12` [Compound 10], the Emax on CaV1.2 channel [2] (pulses to 10 mV from Vh −50 mV) was 86.4 ± 4.9%; in the series on rat aorta rings [3] (setting [6]), 53.1 ± 13.4%. The IC50 on CaV1.2 channel [2] (pulses to 10 mV from Vh −50 mV) is 20.8 ± 6.1 µM; with rat aorta rings [3] (setting [7]), around 69.2 µM.
For the compound sclareol [Compound 6], at CaV1.2 channel [2] (pulses to 10 mV from Vh −50 mV), the “Emax (percent maximal inhibition), IBa1.2” value is on record as 88.7 ± 4.0 (5) % and the IC50 amounted to 33.2 ± 6.8 µM. In addition, in the series with rat aorta rings [3] (endothelium-denuded rat aorta rings pre-contracted by 60 mM KCl), the “Emax (percent maximal inhibition), KCl 60 mM-induced contraction” value is 98.8 ± 1.3 (5) %. The IC50 with rat aorta rings [3] (setting [7]) came out at 11.9 ± 1.3 µM.
